Source: US12459894B2, “Orally active melanocortin receptor-4 compounds” (Palatin Technologies, Inc., priority 2018, dated 2025)
Marks after values point to notes of the source that are not given here.

Experiments:
C57BI/6 DIO mice = experiment: Oral administration in DIO mice (comparison to MC4r knockout mice); format: in vivo, mouse
Method: (§1) Feed intake and body weight was evaluated in MCr4 knockout (MC4r −/−) mice (Jackson Laboratories) compared to C57BI/6 DIO mice. […] Feed weights were taken at time 0, 2, 6 and 24 hours post lights out. […] The change in body weight is shown in FIG. 4 starting on study day 5, the first day of administraton of compound 7.1. […] Additionally, there was a statistically significant mean difference, 2.8%, 95% Cl (1.281, 4.253), and p value<0.0001 between DIO mice receiving compound 7.1 and MC4r (−/−) receiving compound 7.1.

hMC2r = molecular target: T1, hMC2r (Homo sapiens, UniProt Q01718); experiment: cAMP assay, human recombinant Cloudman M3 cells, ACTH reference; format: cell-based; conditions: vs ACTH
T1 construct: expressed in transfected cells; host or cells: Cloudman M3 cells
Method: (§2) Melanocortin receptor binding and function of Compound 7.1 was tested. Ki binding values (nM) were calculated utilizing the percent inhibit of the binding of iodine-125 labeled NDP-α-MSH against B16-F1 cells for mMC1r, and human recombinant CHO cells for hMC3r, hMC4r and hMC5r, with the inhibition constant calculated using the Cheng Prusoff equation. Functional results (EC50 and efficacy) were calculated utilizing cAMP assays with NDP-α-MSH for mMC1r, hMC3r and hMC4r, ACTH for hMC2r, and α-MSH for hMC5r for agonist measures, with the same target cells for melanocortin receptors mMC1r, hMC3r, hMC4r and hMC5r, and human recombinant Cloudman M3 cells for hMC2r.

[1] = Plasma concentrations following oral administration; format: in vivo, Sprague-Dawley rats; conditions: Sprague-Dawley, rat, oral 30 mg/kg
Method: Plasma samples were measured at 15 minutes (2 animals) and 30 minutes, 1 hour, 2 hours, 4 hours, 8 hours and 24 hours (3 animals) post oral administration.

MC4r = MC4r (Homo sapiens, UniProt P32245); experiment: cAMP assay, human recombinant CHO cells, NDP-α-MSH reference; format: cell-based; parameters: expressed in transfected cells; host or cells: CHO; conditions: vs NDP-α-MSH
Method: as §2

hMC3r = molecular target: T2, hMC3r (Homo sapiens, UniProt P41968); experiment: as above; format: cell-based; conditions: vs NDP-α-MSH
T2 construct: expressed in transfected cells; host or cells: CHO
Method: as §2

mMC1r = molecular target: T3, mMC1r (Mus musculus, UniProt Q01727); experiment: cAMP assay, B16-F1 cells, NDP-α-MSH reference; format: cell-based; conditions: vs NDP-α-MSH
T3 construct: endogenous in cells; host or cells: B16-F1 mouse melanoma cells
Method: as §2

hMC5r = molecular target: T4, hMC5r (Homo sapiens, UniProt P33032); experiment: cAMP assay, human recombinant CHO cells, α-MSH reference; format: cell-based; conditions: vs α-MSH
T4 construct: expressed in transfected cells; host or cells: CHO
Method: as §2

C57BL/6 male DIO mice = experiment: Body weight and food intake in vivo study in diet induced obese (DIO) mice; parameters: species or system mouse
Method: Compound 7.1 was assessed in a body weight and food intake in vivo study in diet induced obese (DIO) mice. C57BL/6 male DIO mice were utilized, that were 17 weeks of age on arrival. Animals were pre-conditioned on a high-fat diet for 11 weeks by Jackson Labs. […] Animals were single housed within a limited access rodent facility, and provided ad libitum with a commercial rodent diet and free access to drinking water. Animals were randomized into five groups, a vehicle group, three dose levels of compound 7.1 (3 mg/kg, 10 mg/kg and 30 mg/kg), and Peptide A, a positive control cyclic peptide of the formula Ac-Arg-cyclo(Om-Asn-D-Phe-Arg-Trp-Glu)-NH2. Following three days of sham dosing, animals were dosed for three days, with vehicle or Compound 7.1 dosed orally once daily at within one hour of lights out in the AM, and Peptide A dosed by subcutaneous injection twice daily within one hour before lights out and six hours after lights out. Body weights were measured one hour prior to lights out, and feed weights were measured both one hour prior to lights out and six hours post lights out.
• *p<0.05 vs. sham (vehicle control) using two-way ANOVA followed by Dunnett's post-test. • **p<0.01 vs sham (vehicle control) using two-way ANOVA followed by Dunnett's post-test.

[2] = system: male mice homogygous for the obese spontaneous mutation, Lep^ob; experiment: Oral administration in leptin-deficient obese mice; format: in vivo, mouse; conditions: 30 mg/kg twice daily for six consecutive days
Method: Male mice homogygous for the obese spontaneous mutation, Lep^ob, with resulting leptin protein deficiency, were individually housed with free access to feed and drinking water. All animals were sham-dosed twice daily for five days prior to initial drug administration, utilizing a vehicle dose of 3.2% mannitol and […] tris(hydroxymethyl)aminomethane at pH 7.4. On day 6 a cohort of the mice received compound 7.1 dissolved into the vehicle twice daily for six consecutive days at a dose of 30 mg/kg. Body weight of animals was measured daily, with data analyzed as the percent change from baseline of each individual animal, where baseline was defined as the average weight during the first three days of sham dosing. The averaged percent change from baseline of a vehicle group was then subtracted from each value to correct for continued weight gain or other study-wide factors. The change in body weight is shown in FIG. 3 starting on study day […], the first day of administration of compound 7.1.

MC4r (−/−) mice = experiment: Oral administration in MC4r knockout mice; format: in vivo, mouse; conditions: 30 mg/kg twice daily oral gavage
Method: as §1

Sequence of MC4r (P32245 whole entry): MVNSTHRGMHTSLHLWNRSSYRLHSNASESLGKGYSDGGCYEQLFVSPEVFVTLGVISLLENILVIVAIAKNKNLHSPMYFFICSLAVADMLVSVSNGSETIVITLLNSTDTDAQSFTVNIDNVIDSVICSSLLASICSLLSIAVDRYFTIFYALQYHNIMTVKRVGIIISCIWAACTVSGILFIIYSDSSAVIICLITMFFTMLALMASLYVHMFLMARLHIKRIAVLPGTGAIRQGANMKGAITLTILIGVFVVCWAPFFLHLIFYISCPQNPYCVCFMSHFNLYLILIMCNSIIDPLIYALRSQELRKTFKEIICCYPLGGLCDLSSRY
T1 sequence (Q01718 whole entry): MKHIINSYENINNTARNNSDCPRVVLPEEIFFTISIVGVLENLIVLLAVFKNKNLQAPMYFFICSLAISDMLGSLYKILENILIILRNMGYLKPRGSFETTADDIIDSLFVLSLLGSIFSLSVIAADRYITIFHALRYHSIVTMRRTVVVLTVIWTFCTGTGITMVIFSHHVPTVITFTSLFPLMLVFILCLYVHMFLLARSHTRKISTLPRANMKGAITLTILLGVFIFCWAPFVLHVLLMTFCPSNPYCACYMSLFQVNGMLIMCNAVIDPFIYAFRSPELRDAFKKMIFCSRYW
T1 sequence (Q9D159 whole entry partner): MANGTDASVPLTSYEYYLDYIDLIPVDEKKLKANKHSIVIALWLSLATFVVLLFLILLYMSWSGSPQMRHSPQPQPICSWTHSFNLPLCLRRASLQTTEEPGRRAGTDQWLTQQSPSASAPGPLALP
T4 sequence (P33032 whole entry): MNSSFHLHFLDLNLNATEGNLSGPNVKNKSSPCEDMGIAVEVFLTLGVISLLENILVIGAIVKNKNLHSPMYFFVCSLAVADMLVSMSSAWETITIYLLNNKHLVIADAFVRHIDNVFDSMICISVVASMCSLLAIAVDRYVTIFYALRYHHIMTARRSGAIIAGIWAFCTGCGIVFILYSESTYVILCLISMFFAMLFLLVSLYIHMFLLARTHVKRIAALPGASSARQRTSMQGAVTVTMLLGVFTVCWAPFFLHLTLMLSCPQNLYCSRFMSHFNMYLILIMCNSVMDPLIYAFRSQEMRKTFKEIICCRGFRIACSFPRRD
T2 sequence (P41968 whole entry): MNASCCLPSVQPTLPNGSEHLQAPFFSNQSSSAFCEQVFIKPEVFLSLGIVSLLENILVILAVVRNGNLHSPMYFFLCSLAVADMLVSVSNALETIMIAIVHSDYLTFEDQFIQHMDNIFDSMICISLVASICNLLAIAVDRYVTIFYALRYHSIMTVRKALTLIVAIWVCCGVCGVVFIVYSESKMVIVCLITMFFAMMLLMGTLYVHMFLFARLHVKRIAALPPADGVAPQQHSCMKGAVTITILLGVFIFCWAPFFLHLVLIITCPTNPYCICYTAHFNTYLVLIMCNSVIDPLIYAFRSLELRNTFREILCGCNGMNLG
T3 sequence (Q01727 whole entry): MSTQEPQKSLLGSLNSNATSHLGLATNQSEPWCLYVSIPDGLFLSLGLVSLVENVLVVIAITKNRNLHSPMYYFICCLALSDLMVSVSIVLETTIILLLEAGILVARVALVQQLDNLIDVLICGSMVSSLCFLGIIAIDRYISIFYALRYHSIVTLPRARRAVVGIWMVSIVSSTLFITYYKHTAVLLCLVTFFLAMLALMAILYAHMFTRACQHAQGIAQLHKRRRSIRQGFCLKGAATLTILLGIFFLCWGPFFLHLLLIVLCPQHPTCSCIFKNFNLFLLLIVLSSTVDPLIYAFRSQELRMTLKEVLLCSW

In the case of CC(=O)N1CCC(N(CC(C)C)N2CCN(C(=O)[C@@H](Cc3ccc(Cl)cc3)NC(=O)C(C)(C)N)CC2)CC1 [Compound 7.1, N-[(1R)-2-[4-[(1-acetyl-4-piperidyl)-isobutyl-amino]piperazin-1-yl]-1-[(4-chlorophenyl)methyl]-2-oxo-ethyl]-2-amino-2-methyl-propanamide], the “food consumption vs vehicle only” value (C57BI/6 DIO mice; 30 mg/kg twice daily oral gavage, DIO mice, 6 and 24 hour timepoints) is reported as “significantly decreased”, the “mean difference in body weight change between DIO mice and MC4r (−/−) mice receiving compound” value (C57BI/6 DIO mice; 30 mg/kg twice daily oral, p value<0.0001) is reported as 2.8% and the “body weight vs own vehicle group” value (C57BI/6 DIO mice; 30 mg/kg two daily administrations via oral gavage, DIO mice) is reported as “significant body weight loss”. For the same compound, the “mean percentage body weight change difference between treated group and vehicle” value (C57BI/6 DIO mice; DIO mice, 30 mg/kg twice daily oral) was 4.9%, the “cAMP Efficacy” value (hMC2r) was 22% and the Tmax [1] was 2 h. For the same compound, the “cAMP Efficacy” value (MC4r) was 91%, the “cAMP Efficacy” value (hMC3r) was 28% and the “cAMP Efficacy” value (mMC1r) was 72%. The “cAMP Efficacy” value (hMC5r) was 20%, the “Body Weight Change (%) Mean” value (C57BL/6 male DIO mice; 3 mg/kg orally once daily, Day 0) was 0% and the “Food Intake - 24 Hours (g) Mean” value (C57BL/6 male DIO mice; 3 mg/kg orally once daily, Day 0, 24 hours post lights out) was 1.90 g. For the same compound, the “Body Weight Change (%) Mean” value (C57BL/6 male DIO mice; 3 mg/kg orally once daily, Day 1) was −1.97%, the “Food Intake - 24 Hours (g) Mean” value (C57BL/6 male DIO mice; 3 mg/kg orally once daily, Day 1, 24 hours post lights out) was 2.03 g and the “Body Weight Change (%) Mean” value (C57BL/6 male DIO mice; 3 mg/kg orally once daily, Day 2) was −2.92%. The “Food Intake - 24 Hours (g) Mean” value (C57BL/6 male DIO mice; 3 mg/kg orally once daily, Day 2, 24 hours post lights out) was 2.11 g, the “Body Weight Change (%) Mean” value (C57BL/6 male DIO mice; 3 mg/kg orally once daily, Day 3) was −3.80* % and the “body weight” value (C57BL/6 male DIO mice; 3 mg/kg, day 3) was “body weight loss on day 3”. The “Body Weight Change (%) Mean” value (C57BL/6 male DIO mice; 10 mg/kg orally once daily, Day 0) was 0%, the “Food Intake - 24 Hours (g) Mean” value (C57BL/6 male DIO mice; 10 mg/kg orally once daily, Day 0, 24 hours post lights out) was 1.82 g and the “Body Weight Change (%) Mean” value (C57BL/6 male DIO mice; 10 mg/kg orally once daily, Day 1) was −2.48* %. For the same compound, the “Food Intake - 24 Hours (g) Mean” value (C57BL/6 male DIO mice; 10 mg/kg orally once daily, Day 1, 24 hours post lights out) was 1.78 g, the “Body Weight Change (%) Mean” value (C57BL/6 male DIO mice; 10 mg/kg orally once daily, Day 2) was −3.77** % and the “Food Intake - 24 Hours (g) Mean” value (C57BL/6 male DIO mice; 10 mg/kg orally once daily, Day 2, 24 hours post lights out) was 2.20 g. For the same compound, the “Body Weight Change (%) Mean” value (C57BL/6 male DIO mice; 10 mg/kg orally once daily, Day 3) was −4.35** %, the “Body Weight Change (%) Mean” value (C57BL/6 male DIO mice; 30 mg/kg orally once daily, Day 0) was 0% and the “Food Intake - 24 Hours (g) Mean” value (C57BL/6 male DIO mice; 30 mg/kg orally once daily, Day 0, 24 hours post lights out) was 1.62* g. The “Body Weight Change (%) Mean” value (C57BL/6 male DIO mice; 30 mg/kg orally once daily, Day 1) was −4.41** %, the “Food Intake - 24 Hours (g) Mean” value (C57BL/6 male DIO mice; 30 mg/kg orally once daily, Day 1, 24 hours post lights out) was 1.60* g and the “Body Weight Change (%) Mean” value (C57BL/6 male DIO mice; 30 mg/kg orally once daily, Day 2) was −5.82** %. For the same compound, the “Food Intake - 24 Hours (g) Mean” value (C57BL/6 male DIO mice; 30 mg/kg orally once daily, Day 2, 24 hours post lights out) was 1.91* g, the “Body Weight Change (%) Mean” value (C57BL/6 male DIO mice; 30 mg/kg orally once daily, Day 3) was −7.08** % and the “feed intake” value (C57BL/6 male DIO mice; 30 mg/kg, 24 hours post lights out, entirety of the study, vs sham) was “significantly inhibited feed intake”. The “body weight” value (C57BL/6 male DIO mice; daily 10 mg/kg and 30 mg/kg, day 1 to 3) was “significant body weight loss”, the “decrease in body weight compared to vehicle controls” value [2] was 4.8% and the “food consumption vs vehicle only” value (MC4r (−/−) mice) was “no differences in food consumption”.
